Experimental data as given in patent publication US20110064721A1, “CATHEPSIN-D NEUROPROTECTION” (THE UAB RESEARCH FOUNDATION, priority 2007, published 2011).
“Also recorded” adds a separate entry of the source.

Tests used:
SHSY5Y cells = assay: Cell death/survival after transfection, trypan blue exclusion; format: cell-based, human
Procedure: (§1) Cell culture and transfection: The human neuroblastoma SHSY5Y cells were transfected in triplicate by vector alone, GFP-α-syn, pCMV-CD, or co-transfected by GFP-α-syn (or A53T, MOP, Y125A mutant α-syn) and pCMV-CD (or mutant CD) by Amaxa method as described by the vendor. Transfection efficiency was ˜80% as assessed by cells with or without GFP. Seventy-two (72) hours after transfection, cells were harvested. For chloroquine (10 μM) treatment, the chemicals were added 48 hours after transfection, cells were harvested […]. Live cells were counted by trypan blue exclusion. Relative cell survival was calculated as number of live cells after transfection by pCMV-CD and/or GFP-α-syn divided by live cells after transfection by vector alone. Elevated expression of α-syn or cathepsins was confirmed by Western blot analyses using whole cell extracts.
Overexpression of CD is neuroprotective against α-syn toxicity in mammalian cells. Excessive α-syn induces neuron death in cell cultures, and in a variety of genetic and viral delivery based animal models. To examine the potential of elevating CD level as a means to reduce α-syn-induced cell death, human neuroblastoma SHSY5Y cells were transfected with α-syn, in the absence or presence of increased CD expression (FIG. 4B). Similar to previous studies of α-syn overexpression in yeast, worms and rat neurons, it was observed that overexpression of wildtype α-syn induced robust cell death in SHSY5Y cells.
α-syn point mutation at the major CD cleavage site results in resistance to CD neuroprotection. α-syn is rich in hydrophobic amino acids (52%) and is natively unfolded. CD has a known specificity in recognizing hydrophobic residues. Although α-syn contains many putative CD cleavage sites, the main cleavage occurs at A124-Y125 (Hossain et al., J. Alzheimers Dis. 3:577-584 (2001)). It was observed that CD is also protective against PD-causing mutant α-syn induced-cell death in SHSY5Y cells (FIG. 4D). […] Furthermore, CD is ineffective at attenuating chloroquine- or staurorosporine-induced cell death (FIG. 4D).

α-syn = assay: Western blot of α-syn after CD co-transfection; format: cell-based, human; settings: SHSY5Y cells, co-expression with α-syn-GFP
Procedure: as §1
Western blot: Wildtype and CD−/− cortex (n≧3 each genotype) were homogenized in 10 volumes of ice-cold lyses buffer (50 mM Tris-HCl pH 7.4, 175 mM NaCl, 5 mM EDTA), sonicated for 10 seconds, add TritonX-100 to 1% and incubated for 30 minutes on ice. Homogenates were then centrifuges at 15,000 g for 15 min at 4° C. to separate supernatants (fractions soluble in 1% TritonX-100) and pellets (TritonX-100-insoluble fractions) as described in Giasson et al., Neuron 34:521-33 (2002). Pellets were resuspended in lyses buffer containing 2% SDS. […]

dopaminergic neurons = assay: DA neurodegeneration analysis in α-syn transgenic worms; format: in vivo, C. elegans; settings: for protection from α-syn-induced dopaminergic neurodegeneration: 7 day old worms overexpressing human cDNA with α-syn
Procedure: For the DA neurodegeneration analysis, strain UA54 [baEx45; Pdat-1::α-syn, Pddat-1::gfp, Pdat-1 j::CD, rol-6 (su1006)], UA90 [baEx69; Pdat-1::α-syn, Pdat-1j::CD D295R, rol-6 (su1006)], UA91 [baEx70; Pdat-1::α-syn, Pdat-1::CD F2291, rol-6 (su1006)], UA53 [baEx44; Pdat-1::α-syn, rol-6 (su1006)], and UA55 [baEx46; Pdat-1::α-syn, Pdat-1::CL, rol-6 (su1006)] were generated by injecting 50 μg/ml of expression plasmid containing the human cathepsin cDNA and 50 μg/ml of rol-6 into an integrated line of UA44 [baInl1; Pdat-1::α-syn, (Cao et al., J. Neurosci. 25:3801-12 (2005))]. Three stable lines were randomly selected for neurodegeneration analysis. The 6 anterior DA neurons (4 CEP and 2 ADE neurons) of 30 animals/trial were examined for neurodegeneration when the animals were 7 days old. 90 animals from each of three CD (or CD D295R, CD F229I, CB, and CL) transgenic lines were analyzed (3 lines×3 trials of 30 animals/trial=270 total animals scored).
It was further investigated whether human CD attenuates the loss of dopaminergic neurons in a C. elegans model of α-syn-induced neurodegeneration (Cooper et al., Science 313:324-8 (2006)).

Substance | staurosporine-induced cell death (SHSY5Y cells; 2 μM staurosporine) | chloroquine-induced cell death (SHSY5Y cells; 10 μM chloroquine) | A30P mutant α-syn-induced cell death (SHSY5Y cells; co-transfection with A30P mutant α-syn) | A53T mutant α-syn-induced cell death (SHSY5Y cells; co-transfection with A53T mutant α-syn) | Y125A mutant α-syn-induced cell death (SHSY5Y cells; co-transfection with Y125A mutant α-syn (CD cleavage site)) | protection against α-syn overexpression-induced cell death (SHSY5Y cells; wildtype GFP-α-syn co-transfection, 72 hours, viable cells by trypan blue) | truncation/cleavage of α-syn-GFP (α-syn) | protection from α-syn-induced dopaminergic neurodegeneration (dopaminergic neurons) | percentage of worms exhibiting the wildtype neuronal complement of all 6 anterior DA neurons (dopaminergic neurons; 7 day old worms overexpressing α-syn in DA neurons, n=270, α-syn alone 15-16%)
CD: principal lysosomal aspartate protease; human CD overexpressed by transfection or transgene (pCMV-CD) | ineffective; also recorded: does not reduce | ineffective; also recorded: does not reduce | protective; also recorded: reduced | protective; also recorded: reduced | resists neuroprotection by elevated CD; also recorded: does not reduce | provided significant protection; also recorded: protected against α-syn overexpression-induced cell death | produced a cleavage product of α-syn-GFP; also recorded: resulted in truncation of α-syn-GFP | significantly protected against dopaminergic neurodegeneration; also recorded: protects worms from neurodegeneration | 30%
CL: related human cathepsin gene product, representative lysosomal cysteine protease, overexpressed in worms | – | – | – | – | – | – | – | did not attenuate dopaminergic neuron death; also recorded: did not have the same effect as the wildtype CD | –
D295R: enzymatic mutant of CD, human cDNA overexpressed in transgenic worms | – | – | – | – | – | – | – | did not attenuate dopaminergic neuron death; also recorded: did not have the same effect as the wildtype CD | –
